PubChem BioAssay AID384 (SGCOxCompounds, 2006)

target: Casein kinase I isoform gamma-2 (Homo sapiens) (UniProt P78368); assay: ligand binding to human CK1 gamma-2 kinase – biophysical, DSF, SYPRO orange, recombinant protein (AID 384); settings: recombinant CSNK1G2, DSF thermal shift, at 10 µM, protein 2 µM, buffer 10 mM HEPES, NaCl 100 mM, active compounds read high
Sequence (P78368 whole entry, looked up, canonical isoform): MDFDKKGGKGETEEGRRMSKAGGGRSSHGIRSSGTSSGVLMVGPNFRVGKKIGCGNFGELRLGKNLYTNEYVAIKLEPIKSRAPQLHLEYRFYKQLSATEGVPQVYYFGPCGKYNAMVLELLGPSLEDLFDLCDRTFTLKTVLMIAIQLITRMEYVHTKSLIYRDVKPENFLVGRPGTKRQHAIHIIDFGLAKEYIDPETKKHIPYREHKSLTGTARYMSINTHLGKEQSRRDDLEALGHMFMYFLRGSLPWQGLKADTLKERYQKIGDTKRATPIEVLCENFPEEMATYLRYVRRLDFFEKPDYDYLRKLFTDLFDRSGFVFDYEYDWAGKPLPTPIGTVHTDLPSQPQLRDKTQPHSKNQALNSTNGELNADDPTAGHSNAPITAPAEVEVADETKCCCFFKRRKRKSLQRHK

| Structure (SMILES) | Tm shift [Celsius] |
| --- | --- |
| NC1=N/C(=C2/CCNC(=O)c3[nH]c(Br)cc32)C(=O)N1 | 8.12 |
| COc1cc(/C=C/C(=O)CC(=O)/C=C/c2ccc(O)c(OC)c2)ccc1O | 4.92 |
| CCn1cnc2c(Nc3cccc(Cl)c3)nc(N[C@@H]3CCCC[C@@H]3N)nc21 | 3.79 |
| O=C1C(=O)C(c2cc(O)c(O)c(O)c2)Oc2cc(O)cc(O)c21 (configuration not stated) | 3.74 |
| CC(C)C(CO)Nc1nc(Nc2cccc(Cl)c2)c2ncn(C(C)C)c2n1 (configuration not stated) | 4.92 |
| Nc1ncnc2c1c(I)cn2[C@@H]1O[C@H](CO)C(O)C1O (some centres not stated) | 4.69 |
| NC1=N/C(=C2\CCNC(=O)c3[nH]ccc32)C(=O)N1 | 3.67 |
| Clc1ccc(Nc2ncc(-c3cn[nH]c3)n3ccnc23)cc1 | 3.76 |
| O=c1cc(-c2ccc(O)c(O)c2)oc2cc(O)cc(O)c12 | 4.55 |
| COc1cc(O)c2c(c1)oc(=O)c1c3cc(O)c(O)cc3oc21 | 5.16 |
| O=c1c(O)c(-c2ccc(O)c(O)c2)oc2cc(O)ccc12 | 3.19 |
| CCN(CC)CCNC(=O)c1c(C)[nH]c(/C=C2\C(=O)Nc3ccc(Cl)cc32)c1C | 4.06 |
| CC(C)n1cnc2c(Nc3cccc(Cl)c3)nc(NCCO)nc21 | 5.58 |

same assay, conditions: recombinant CSNK1G2, DSF thermal shift, at 10 µM, protein 2 µM, buffer 10 mM HEPES, pH 7.5, NaCl 150 mM, active compounds read high

| Structure (SMILES) | Tm shift [Celsius] |
| --- | --- |
| COc1ccc(Nc2nc(N)c(C(=O)c3ccc(OC)cc3)s2)cc1 | 4.3 |
| NC1=N/C(=C2/CCNC(=O)c3[nH]c(Br)cc32)C(=O)N1 | 4.4 |
| NC(=O)c1ccc(-c2nc(-c3ccc4c(c3)OCCO4)c(-c3ccccn3)[nH]2)cc1 | 4.3 |
| O=Nc1c(-c2c(O)[nH]c3ccc(I)cc23)[nH]c2ccccc12 | 3.6 |
| O=c1c(O)c(-c2ccc(O)c(O)c2)oc2cc(O)cc(O)c12 | 3.1 |
| Cc1cc(Nc2nc(-c3ccccc3)nc3ccccc23)n[nH]1 | 3.3 |
| COc1ccc(Nc2nc(N)c(C(=O)c3ccc(Cl)cc3)s2)cc1 | 3.1 |
| O=c1[nH]c(O)c2c1c1c3ccccc3nc1n1cncc21 | 3.6 |
| Nc1ncnc2c1c(I)cn2[C@@H]1O[C@H](CO)C(O)C1O (some centres not stated) | 3.3 |
| O=Nc1c(-c2c(O)[nH]c3ccc(S(O)(O)O)cc23)[nH]c2ccccc12 | 3.1 |
| Cc1nc(N)sc1-c1ccnc(Nc2cccc(-n3oo3)c2)n1 | 4 |
| CC(C)n1cnc2c(Nc3cccc(Cl)c3)nc(NCCO)nc21 | 4.7 |
| CSc1nc(-c2ccnc(NC(C)c3ccccc3)c2)c(-c2ccc(F)cc2)[nH]1 (configuration not stated) | 3.4 |
| Nc1nc(Nc2cccc(Cl)c2)sc1C(=O)c1ccc(F)cc1 | 3.4 |
